Results taken from patent publication US11066399B2, “Ferroportin inhibitors” (Vifor (International) AG, priority 2015, dated 2021).
Marks after values point to notes of the source that are not given here.

Key:
[1] = test system: Hbb th3/+ mice; assay: Improvement of anemia, ineffective erythropoiesis and iron overload in a mouse model of β-thalassemia intermedia; assay type: in vivo; details: % change to vehicle; for Decrease in serum iron: dosed for 3 h
Protocol: The efficacy of Fpn inhibitors was investigated using a mouse model of transfusion-independent β-thalassemia. Mice with heterozygous deletion of β1 and β2 globin genes (called Hbb th3/+ mice) develop transfusion-independent anemia, ineffective erythropoiesis, splenomegaly and secondary iron overload in spleen, liver and kidneys. […] Hbb th3/+ mice were dosed twice daily with either compound at 20 or 60 mg/kg or with methylcellulose (10 ml/kg, Sigma, Cat. 274429) as a vehicle. Between both doses mice had access to drinking water supplemented with 1 mM ^58Fe(II)-sulfate (Vifor Pharma, Batch No. ROR 3096) and 10 mM ascorbic acid (Sigma, Cat. 795437) for 6 h. […] Water without ^58Fe(II)-Sulfate and ascorbic acid was provided during the remaining 18 h. Dosing of Fpn inhibitors or vehicle followed by exposure to iron-containing water was repeated for 20 to 46 days in individual experiments.
Additional hematologic parameters were measured in terminal blood using automated blood cell analyzer.
The inefficient erythropoiesis of Hbb th3/+ mice causes excessive proliferation of erythroid precursors in spleen, leading to splenomegaly.
Erythroferrone is produced by erythrocyte precursors proliferating massively in spleens of Hbb th3/+ mice as a consequence of extramedullar erythropoiesis.
Increased iron demand due to inefficient erythropoiesis and chronically low hepcidin levels in patients with thalassemia causes organ iron loading and associated morbidities, such as hepatocellular carcinoma and heart failure (Rivella S. Haematologica, 2015). Hbb th3/+ mice absorb excessive amounts of iron as a consequence of inadequately low hepcidin levels relative to the high iron content in liver, spleen and kidney and increased ferroportin expression in duodenum (Gardenghi S., Blood, 2007).
Additionally, reactive oxygen species (ROS) were detected in bone marrow cells using a fluorescent indicator, CM-H2DCFDA (Thermo Fisher Scientific, Cat. C6827).
Table 10. Efficacy of Ferroportin inhibitors in a mouse model of thalassemia intermedia (Hbb th3/+ mice). […] Data are expressed as difference to the vehicle control group for hemoglobin and as % change to the vehicle control group for all other parameter shown

[2] = test system: b2m−/− mice; assay: Correction of hyperferremia in beta2-microglobulin deficient mice; assay type: in vivo, mouse; details: male b2m−/− mice, Dose 20 mg/kg oral, blood collected 1 (#) hour after dosing
Protocol: Female and male homozygous b2m−/− mice were supplied from Jackson Laboratories (B6.129P2-B2mtm1Unc/J, Stock Number: 002087) at age of 6 to 7 weeks and fed standard diet (Harlan Provimi Kliba 3436) ad libitum. Age and gender matched WT C57BL/6 mice are supplied by Charles River. To study the acute effects of ferroportin (Fpn) inhibitors in iron overload b2m−/− mice were treated with compounds or the corresponding amount of vehicle at a volume of 10 ml/kg body weight. Fpn inhibitor compounds were formulated in 0.5% methylcellulose/water or 20% cremophor EL/water and dosed p.o. in mice at 50 mg/kg body weight. WT controls received only vehicle. Three hours later, mice were pre-terminally anesthetized in isoflurane chambers and blood was collected by retro-orbital bleeding. Mice were sacrificed by cervical dislocation and spleens, livers and duodena were harvested and used for biomarker analysis. All experiments have been performed in compliance with license approved by the responsible veterinarian authorities. Serum was isolated by centrifugation of blood into gel-containing microtainers (BD Biosciences) and serum iron was determined by the MULTIGENT Iron assay (Abbott Diagnostics, Cat. 6K95). Four to nine mice per group were used and one-way ANOVA with Bonferroni's multiple comparison test was applied to analyze the statistical differences between the experimental groups.
Blood was collected 1 (#) or 3 (##) hours after oral administration of the indicated doses of Fpn inhibitors to beta2-microglobulin deficient mice and serum iron concentrations were measured. Relative reduction (%) of serum iron levels are shown, which were calculated by subtracting the average of serum iron values of animals dosed with the Fpn inhibitor from that of vehicle-treated animals. The difference in average serum iron values between vehicle and compound treated groups was then divided by the average of serum iron of the vehicle control group and listed as percentage.

[3] = test system: anemic Wistar rats; assay: Prevention of iron absorption in anemic rats; assay type: in vivo, rat; details: 1 h before 0.5 mg/kg ferrous sulfate
Protocol: To assess the in vivo efficacy of ferroportin (Fpn) inhibitors to block iron absorption, a series of Fpn inhibitors were tested in an anemic rat model for iron absorption. Wistar rats (3-4 weeks old, n=5, Janvier Labs) were fed a low iron diet (Provimi-Kliba, Cat. 2039) until their hemoglobin (Hb) values reach 7-8 g/dl one day before dosing of the Fpn inhibitor compounds. One hour before oral application of 0.5 mg/kg of ferrous sulfate, test compounds formulated in methyl cellulose or Cremophor were dosed orally. Blood samples were taken by tail vein puncture one hour before administration of iron (−1 h), immediately after dosing of the Fpn inhibitors (0 h) and one hour (1 h), three hours (3 h) and occasionally up to 6 hours (6 h) after dosing of the test compounds. Serum iron levels were measured (Abbott Diagnostics, Cat. 6K95) and inhibition of the rise of serum iron three hours after dosing of the test compound was calculated as a measure for efficacy of the Fpn inhibitors in blocking iron absorption (Table 7).

[4] = test system: naïve WT C57BL/6 mice; assay: Hypoferremia in naïve mice; assay type: in vivo, mouse; details: Mus musculus, po, 3 h, read-out: Serum Iron Reduction at 3 h (%)
Protocol: Female C57BL/6 mice (Janvier, France) at age of 9 weeks were fed a standard diet (Harlan Provimi Kliba 3436) and treated per os (p.o.) with compounds or the corresponding amount of vehicle at a volume of 10 ml/kg body weight. Fpn inhibitors were formulated in 0.5% methylcellulose/water or 20% cremophor EL/water and dosed p.o. in mice at 10, 30 or 100 mg/kg body weight. Three hours later, mice were pre-terminally anesthetized in isoflurane chambers and blood was collected by retro-orbital bleeding. Mice were sacrificed by cervical dislocation and spleens, livers and duodena were harvested and used for biomarker analysis. All experiments have been conducted in compliance with the license approved by the responsible veterinarian authorities. Serum was isolated by centrifugation of blood into gel-containing microtainers and serum iron was determined by the MULTIGENT Iron assay (Abbott Diagnostics, 6K95). Eight mice per group were used and one-way ANOVA with Bonferroni's multiple comparison test was performed to analyze the statistical differences between the experimental groups.
Relative serum iron reduction at 3 h after dosing was calculated by subtracting the average of serum iron values of animals dosed with the Fpn inhibitor from that of vehicle-treated animals. The difference in average serum iron values between vehicle and compound treated groups was then divided by the average of serum iron of the vehicle control group and listed as percentage.

[5] = test system: Hbb th3/+ mice; assay: Improvement of anemia, ineffective erythropoiesis and iron overload in a mouse model of β-thalassemia intermedia; assay type: in vivo; details: hemoglobin difference to vehicle

O=C(NCc1ncccc1F)c1csc(CCNCc2nc3ccccc3[nH]2)n1 [Example 40]
Decrease in serum erythropoietin ([1]; 20 mg/kg twice daily for 20-46 days): 6%
Decrease in serum iron ([1]; 20 mg/kg): 28%
Decrease in serum iron ([1]; 60 mg/kg): 58%
Serum Iron Reduction (%) [2]: 35** %

O=C(NCc1ncccc1F)c1cnc(CCNCCc2nc3ccccc3[nH]2)o1 [Example 1]
Serum Iron Inhibition (%) at 3 h ([3]; Dose 10 mg/kg oral): 42.6** %
Serum Iron Inhibition (%) at 3 h ([3]; Dose 30 mg/kg oral): 64.9*** %

O=C(NCc1ncccc1F)c1cnn(CCNCCc2cc3ccccc3[nH]2)c1 [Example 277]
inhibition in vivo at 10 mg/kg [4]: 6%
inhibition in vivo at 30 mg/kg [4]: 21%
inhibition in vivo at 100 mg/kg [4]: 54%

O=C(NCc1ncccc1F)c1cnc(C2CN(CCc3nc4ccccc4[nH]3)C2)o1 [Example 2]
Correction of anemia at day 20-48 ([5]; 20 mg/kg twice daily): 3 g/L
Correction of anemia at day 20-48 ([5]; 60 mg/kg twice daily): 11 g/L
